# Laboratory results reported in PubChem BioAssay (NCI).
#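 How tested: cells in 96-well plates exposed to compound for 48 hours at five concentrations. Here, GI50 denotes the concentration required for 50% inhibition of growth. TGI denotes the concentration required for complete inhibition of growth.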
# What was measured:
# Assay in all cases: DTP human tumour cell line panel, 48 h
# [1] = system: UACC-62 melanoma
# [2] = system: SK-MEL-2 melanoma
# [3] = system: CCRF-CEM leukemia
# [4] = system: SF-268 CNS
# [5] = system: HCT-15 colon
# [6] = system: UO-31 renal
# [7] = system: NCI/ADR-RES ovarian
# [8] = system: U251 CNS
# [9] = system: MCF7 breast
# [10] = system: TK-10 renal
# [11] = system: NCI-H460 lung
# [12] = system: RXF 393 renal
# [13] = system: PC-3 prostate
# [14] = system: SR leukemia
# [15] = system: SK-MEL-5 melanoma
# [16] = system: DU-145 prostate
# [17] = system: HOP-62 NSCLC
# [18] = system: EKVX NSCLC
# [19] = system: K-562 leukemia
# [20] = system: HOP-92 NSCLC
# [21] = system: HCT-116 colon
# [22] = system: SNB-19 CNS
# [23] = system: A498 renal
# [24] = system: HT29 colon
# [25] = system: SF-295 CNS
# [26] = system: NCI-H226 lung
# [27] = system: CAKI-1 renal
# [28] = system: NCI-H23 lung
# [29] = system: MDA-MB-231 breast
# [30] = system: M14 melanoma
# [31] = system: OVCAR-8 ovarian
# [32] = system: MDA-MB-435
# [33] = system: LOX IMVI melanoma
# [34] = system: IGROV1 ovarian
# [35] = system: SW-620 colon
# [36] = system: KM12 colon
# [37] = system: OVCAR-4 ovarian
# [38] = system: UACC-257 melanoma
# [39] = system: SNB-75 CNS
# [40] = system: ACHN renal
# [41] = system: HS 578T breast
# [42] = system: SK-OV-3 ovarian
# [43] = system: COLO 205 colon
# [44] = system: BT-549 breast
# [45] = system: MOLT-4 leukemia
# [46] = system: 786-0 renal
# [47] = system: T-47D breast
# [48] = system: HL-60(TB) leukemia
# [49] = system: SK-MEL-28 melanoma
# [50] = system: HCC-2998 colon
# [51] = system: SF-539 CNS
# [52] = system: NCI-H522 lung
# [53] = system: OVCAR-5 ovarian
# [54] = system: OVCAR-3 ovarian
# [55] = system: MALME-3M melanoma
# [56] = system: RPMI-8226 leukemia
# [57] = system: SN12C renal
# [58] = system: A549 NSCLC
smiles,measurement,setting,value
O=c1[nH]c2cc(F)c(F)cc2nc1Cc1ccccc1,TGI,[1],> 100000 nM
same,TGI,[2],> 100000 nM
same,TGI,[3],> 100000 nM
same,TGI,[4],> 100000 nM
same,TGI,[5],> 100000 nM
same,TGI,[6],> 100000 nM
same,TGI,[7],> 100000 nM
same,TGI,[8],> 100000 nM
same,TGI,[9],> 100000 nM
same,TGI,[10],> 100000 nM
same,TGI,[11],> 100000 nM
same,TGI,[12],> 100000 nM
same,TGI,[13],> 100000 nM
same,TGI,[14],> 100000 nM
same,TGI,[15],> 100000 nM
same,TGI,[16],> 100000 nM
same,TGI,[17],> 100000 nM
same,TGI,[18],> 100000 nM
same,TGI,[19],> 100000 nM
same,TGI,[20],> 100000 nM
same,TGI,[21],> 100000 nM
same,TGI,[22],> 100000 nM
same,TGI,[23],> 100000 nM
same,TGI,[24],> 100000 nM
same,TGI,[25],> 100000 nM
same,TGI,[26],> 100000 nM
same,TGI,[27],> 100000 nM
same,TGI,[28],> 100000 nM
same,TGI,[29],> 100000 nM
same,TGI,[30],> 100000 nM
same,TGI,[31],> 100000 nM
same,TGI,[32],> 100000 nM
same,TGI,[33],> 100000 nM
same,TGI,[34],> 100000 nM
same,TGI,[35],> 100000 nM
same,TGI,[36],> 100000 nM
same,TGI,[37],> 100000 nM
same,TGI,[38],> 100000 nM
same,TGI,[39],> 100000 nM
same,TGI,[40],> 100000 nM
same,TGI,[41],> 100000 nM
same,TGI,[42],> 100000 nM
same,TGI,[43],> 100000 nM
same,TGI,[44],> 100000 nM
same,TGI,[45],> 100000 nM
same,TGI,[46],> 100000 nM
same,TGI,[47],> 100000 nM
same,TGI,[48],> 100000 nM
same,TGI,[49],> 100000 nM
same,TGI,[50],> 100000 nM
same,TGI,[51],> 100000 nM
C=C1C(=O)O[C@H]2[C@H]1CC/C(COC(=O)CCSSCCC(=O)OC/C1=C/CC[C@@]3(C)O[C@H]3[C@H]3OC(=O)C(=C)[C@@H]3CC1)=C\CC[C@@]1(C)O[C@@H]21,GI50,[52],688 nM
same,TGI,[52],2270 nM
same,GI50,[1],1560 nM
same,TGI,[1],3160 nM
same,GI50,[2],1930 nM
same,TGI,[2],4160 nM
same,GI50,[3],225 nM
same,TGI,[3],1190 nM
same,GI50,[53],1590 nM
same,TGI,[53],3160 nM
same,GI50,[4],1460 nM
same,TGI,[4],3080 nM
same,GI50,[5],429 nM
same,TGI,[5],1760 nM
same,GI50,[54],650 nM
same,TGI,[54],1950 nM
same,GI50,[6],1080 nM
same,TGI,[6],2280 nM
same,GI50,[7],2860 nM
same,TGI,[7],10200 nM
same,GI50,[8],1410 nM
same,TGI,[8],2860 nM
same,GI50,[9],426 nM
same,TGI,[9],2320 nM
same,GI50,[10],1620 nM
same,TGI,[10],3190 nM
same,GI50,[11],1590 nM
same,TGI,[11],3340 nM
same,GI50,[12],247 nM
same,TGI,[12],980 nM
same,GI50,[13],1330 nM
same,TGI,[13],2900 nM
same,GI50,[14],308 nM
same,TGI,[14],2770 nM
same,GI50,[15],1440 nM
same,TGI,[15],2780 nM
same,GI50,[16],1300 nM
same,TGI,[16],2570 nM
same,GI50,[17],1980 nM
same,TGI,[17],4640 nM
same,GI50,[18],1610 nM
same,TGI,[18],3470 nM
same,GI50,[19],465 nM
same,TGI,[19],2850 nM
same,GI50,[20],1020 nM
same,TGI,[20],2540 nM
same,GI50,[21],330 nM
same,TGI,[21],1240 nM
same,GI50,[22],1490 nM
same,TGI,[22],3160 nM
same,GI50,[24],819 nM
same,TGI,[24],2390 nM
same,GI50,[25],3500 nM
same,TGI,[25],13900 nM
same,GI50,[26],1600 nM
same,TGI,[26],3340 nM
same,GI50,[27],1280 nM
same,TGI,[27],2540 nM
same,GI50,[28],1730 nM
same,TGI,[28],3720 nM
same,GI50,[29],1230 nM
same,TGI,[29],2660 nM
same,GI50,[55],1080 nM
same,TGI,[55],2540 nM
same,GI50,[30],1340 nM
same,TGI,[30],2880 nM
same,GI50,[56],1060 nM
same,TGI,[56],3900 nM
same,GI50,[57],1140 nM
same,TGI,[57],2580 nM
same,GI50,[31],1260 nM
same,TGI,[31],3020 nM
same,GI50,[32],1400 nM
same,TGI,[32],3070 nM
same,GI50,[33],1600 nM
same,TGI,[33],3120 nM
same,GI50,[34],1190 nM
same,TGI,[34],2660 nM
same,GI50,[35],458 nM
same,TGI,[35],1900 nM
same,GI50,[36],1830 nM
same,TGI,[36],3690 nM
same,GI50,[37],1520 nM
same,TGI,[37],3120 nM
same,GI50,[58],1990 nM
same,TGI,[58],4270 nM
same,GI50,[38],1600 nM
same,TGI,[38],3430 nM
same,GI50,[39],1800 nM
same,TGI,[39],3480 nM
same,GI50,[40],897 nM
same,TGI,[40],2110 nM
same,GI50,[41],1950 nM
same,TGI,[41],7450 nM
same,GI50,[42],6670 nM
same,TGI,[42],19000 nM
same,GI50,[43],1160 nM
same,TGI,[43],2990 nM
same,GI50,[44],1100 nM
same,TGI,[44],2330 nM
same,GI50,[45],437 nM
same,TGI,[45],2610 nM
same,GI50,[46],1280 nM
same,TGI,[46],2600 nM
same,GI50,[47],1200 nM
same,TGI,[47],4010 nM
same,GI50,[48],448 nM
same,TGI,[48],2190 nM
same,GI50,[49],1490 nM
same,TGI,[49],2950 nM
same,GI50,[50],1980 nM
same,TGI,[50],3930 nM
same,GI50,[51],1500 nM
same,TGI,[51],2910 nM
